Legend:
Experiment in all cases: relative viability (nuclei count vs DMSO), 5 days (fraction); higher = more cells survive
[1] = compound: CS(=O)(=O)c1ccc(-c2cnc(N)c(C(=O)Nc3ccccc3)n2)cc1 [VE-821] + CS(=O)(=O)CCNCc1ccc(-c2ccc3ncnc(Nc4ccc(OCc5cccc(F)c5)c(Cl)c4)c3c2)o1 [Lapatinib] (partner 2 µM)
Procedure, shortened: (§1)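 Cells from lung cancer lines were seeded into 1536-well plates and, one day later, dosed by pin tool. Treatments were either a single drug or a fixed dose of an anchor drug with five library-drug doses (not always all listed) in √10 steps. After 5 days, nuclei were stained in a one-step fixation (final 0.05% Triton X-100, 1% formaldehyde, 1 ug/ml Hoechst) and counted on 4× images, and relative viability is the treated-to-vehicle nuclei ratio, as the median of duplicate plates.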

[2] = compound: N#CC[C@H](C1CCCC1)n1cc(-c2ncnc3[nH]ccc23)cn1 [Ruxolitinib] + CS(=O)(=O)N1CCN(Cc2cc3nc(-c4cccc5[nH]ncc45)nc(N4CCOCC4)c3s2)CC1 [Pictilisib] (partner 1 µM)
Procedure, shortened: as §1

[3] = compound: CS(=O)(=O)c1ccc(-c2cnc(N)c(C(=O)Nc3ccccc3)n2)cc1 [VE-821] + CS(=O)(=O)N1CCN(Cc2cc3nc(-c4cccc5[nH]ncc45)nc(N4CCOCC4)c3s2)CC1 [Pictilisib] (partner 1 µM)
Procedure, shortened: as §1

[4] = compound: N#CC[C@H](C1CCCC1)n1cc(-c2ncnc3[nH]ccc23)cn1 [Ruxolitinib] + Nc1ncn([C@H]2C[C@H](O)[C@@H](CO)O2)c(=O)n1 [Decitabine] (partner 2 µM)
Procedure, shortened: as §1

Cell Line | relative viability ([1]; first compound 0.08 µM) | relative viability ([1]; first compound 0.253 µM) | relative viability ([1]; first compound 0.8 µM) | relative viability ([1]; first compound 2.53 µM) | relative viability ([1]; first compound 8 µM) | relative viability ([2]; first compound 0.253 µM) | relative viability ([2]; first compound 0.8 µM) | relative viability ([2]; first compound 2.53 µM) | relative viability ([2]; first compound 8 µM) | relative viability ([3]; first compound 0.08 µM) | relative viability ([3]; first compound 0.253 µM) | relative viability ([3]; first compound 0.8 µM) | relative viability ([3]; first compound 2.53 µM) | relative viability ([3]; first compound 8 µM) | relative viability ([4]; first compound 0.08 µM) | relative viability ([4]; first compound 0.253 µM) | relative viability ([4]; first compound 0.8 µM) | relative viability ([4]; first compound 2.53 µM) | relative viability ([4]; first compound 8 µM) | relative viability ([2]; first compound 0.08 µM)
NCI-H2405 | 1.15 | 0.976 | 1.03 | 1.31 | 1.05 | 0.338 | 0.463 | 0.286 | 0.269 | 0.468 | 0.388 | 0.431 | 0.446 | 0.355 | 0.765 | 0.786 | 0.792 | 0.682 | 0.424 | 
NCI-H3122 | 1.06 | 1 | 0.926 | 1.03 | 1 | 0.509 | 0.552 | 0.357 | 0.562 | 0.666 | 0.672 | 0.563 | 0.765 | 0.78 | 0.47 | 0.387 | 0.429 | 0.302 | 0.389 | 0.538
PC-3 [JPC-3] | 0.512 | 0.474 | 0.461 | 0.482 | 0.424 | 0.752 | 0.763 | 0.678 | 0.7 | 0.784 | 0.797 | 0.851 | 0.938 | 0.763 |  | 0.856 | 0.899 | 0.754 | 0.718 | 0.507
PC-14 | 0.336 | 0.297 | 0.286 | 0.32 | 0.277 | 0.618 | 0.799 | 0.654 | 0.476 | 0.91 | 0.734 | 0.708 | 0.759 | 0.74 |  | 0.282 | 0.207 | 0.153 | 0.156 | 
RERF-LC-KJ | 0.92 | 0.756 | 0.798 | 0.772 | 0.715 | 0.447 | 0.656 | 0.53 | 0.393 | 0.496 | 0.498 | 0.463 | 0.547 | 0.482 | 0.689 | 0.812 | 0.791 | 0.719 | 0.589 | 0.517
SK-LU-1 | 0.907 | 0.668 | 0.625 | 0.582 | 0.525 | 0.723 | 0.538 | 0.607 | 0.638 | 0.602 | 0.557 | 0.621 | 0.432 | 0.316 | 0.547 | 0.693 | 0.755 | 0.522 | 0.622 | 0.657
SK-MES-1 | 0.483 | 0.467 | 0.437 | 0.446 | 0.397 | 0.337 | 0.359 | 0.394 | 0.335 | 0.4 | 0.389 | 0.423 | 0.337 | 0.372 | 0.45 | 0.362 | 0.429 | 0.319 | 0.358 | 0.268
SW 1573 | 1.12 | 1.07 | 1.12 | 0.58 | 0.989 | 0.425 | 0.546 | 0.445 | 0.429 | 0.625 | 0.531 | 0.541 | 0.569 | 0.47 | 0.547 | 0.512 | 0.667 | 0.377 | 0.518 | 0.495

Source: the supplement of paper PMC10307832
